Laboratory results published in patent US4132802A, “Benzoic acid derivative and benzenesulfonic acid mucolytic process” (Mead Johnson & Company, priority 1978, dated 1979).
Values joined by “and” are separate entries in the source; they are usually repeats but may differ in a detail not shown here. Equal values may be shown once. Read-outs that look alike come from different tables or passages of the source.

Tests used:
[1] = Mucolytic activity: percent reduction in viscosity of sputum, cone-plate viscometer (method of Lieberman); set-up: species or system human; conditions: for Relative molar potency compared to N-acetyl-L-cysteine: on a molar basis, N-acetyl-L-cysteine = 1; for Mucolytic activity compared to N-acetyl-L-cysteine (in words): compared with N-acetyl-L-cysteine
Method: Mucolytic activity was determined using the method of J. Lieberman, Am. J. Resp. […] This is a viscometric method which employs a cone-plate viscometer (Brookfield Engineering Laboratories, Inc., Stoughton, Mass.). According to this method, a 2 ml. aliquot of a batch of purulent human sputum (obtained from bronchitic patients) is transferred to the center of the viscometer plate and the temperature is allowed to equilibrate. The plate is then rotated at gradually increasing speeds up to 100 r.p.m. during a 2-minute period. This reduces the amount of sputum on the test plate to 1 ml. and reduces the viscosity of the specimen to a reproducible value which is necessary because of the thixotropic properties of sputum. […] The test is repeated with N-acetyl-L-cysteine employing another aliquot of sputum to establish a control for comparison purposes. Relative molar potencies compared to N-acetyl-L-cysteine (NAC) can be determined by varying concentration of the test agent until approximately equivalent mucolytic activity is obtained.

[2] = Toxicity (LD50, TD50) in the mouse; conditions: in vivo
Description: The substances of Formula I are relatively non-toxic substances substantially free of other pharmacologic action.

SMILES | Percent reduction in viscosity ([1]; 0.005 Molar, 1 min, 5000 µM) [%] | Percent reduction in viscosity ([1]; 0.005 Molar, 3 min, 5000 µM) [%] | Percent reduction in viscosity ([1]; 0.005 Molar, 6 min, 5000 µM) [%] | Percent reduction in viscosity ([1]; 0.005 Molar, 9 min, 5000 µM) [%] | Percent reduction in viscosity ([1]; 0.005 Molar, 12 min, 5000 µM) [%] | Percent reduction in viscosity ([1]; 0.005 Molar, 15 min, 5000 µM) [%] | Percent reduction in viscosity ([1]; 0.01 Molar, 1 min, 10000 µM) [%] | Percent reduction in viscosity ([1]; 0.01 Molar, 3 min, 10000 µM) [%] | Percent reduction in viscosity ([1]; 0.01 Molar, 6 min, 10000 µM) [%] | Percent reduction in viscosity ([1]; 0.01 Molar, 9 min, 10000 µM) [%] | Percent reduction in viscosity ([1]; 0.01 Molar, 12 min, 10000 µM) [%] | Percent reduction in viscosity ([1]; 0.01 Molar, 15 min, 10000 µM) [%] | Relative molar potency compared to N-acetyl-L-cysteine [1] | Percent reduction in viscosity ([1]; 0.03 Molar, 1 min, 30000 µM) | Percent reduction in viscosity ([1]; 0.03 Molar, 3 min, 30000 µM) | Percent reduction in viscosity ([1]; 0.03 Molar, 6 min, 30000 µM) | Percent reduction in viscosity ([1]; 0.03 Molar, 9 min, 30000 µM) | Percent reduction in viscosity ([1]; 0.03 Molar, 12 min, 30000 µM) | Percent reduction in viscosity ([1]; 0.03 Molar, 15 min, 30000 µM) | Mucolytic activity compared to N-acetyl-L-cysteine (in words) [1] | other results
O=C(CS)Nc1ccc(C(=O)O)cc1 [Compound 1, 4-(2-MERCAPTOACETAMIDO)BENZOIC ACID] | 32 | 50 | 57 | 55 | 55 | 55 | 45 | 63 | 69 | 76 | 82 | 84 | approximately 12 times |  |  |  |  |  |  |  | LD50 ([2]; ip, intraperitoneally, read-out: LD50): 1110 mg/kg; TD50 ([2]; named in the same clause as the oral LD50, read-out: approximate TD50): ~250 mg/kg; LD50 ([2]; oral, read-out: approximate LD50): ~2000 mg/kg
O=C(CS)Nc1cccc(C(=O)O)c1 [Compound 2, 3-(2-MERCAPTOACETAMIDO)BENZOIC ACID] |  |  |  |  |  |  |  |  |  |  |  |  |  | 44% | 67% | 81% | 89% | 91% | 93% | substantially more active than N-acetyl-L-cysteine | 
O=C(CS)Nc1ccc(S(=O)(=O)O)cc1 [Compound 3, N-(2-MERCAPTOACETYL)SULFANILIC ACID] | 34 | 47 | 50 | 50 | 47 | 44 | 46 | 64 | 66 | 68 | 77 | 82 |  |  |  |  |  |  |  |  | 
O=C(CS)Nc1ccc(C(=O)NCCO)cc1 [Compound 4, N-(2-HYDROXYETHYL)-4-(2-MERCAPTOACETAMIDO)BENZAMIDE] | 30 | 58 | 67 | 75 | 82 | 82 |  |  |  |  |  |  | approximately 15 times |  |  |  |  |  |  |  | Percent reduction in viscosity ([1]; 0.001 Molar, 1 min): 25%; Percent reduction in viscosity ([1]; 0.001 Molar, 3 min, 1000 µM): 32%; Percent reduction in viscosity ([1]; 0.001 Molar, 6 min, 1000 µM): 36%; Percent reduction in viscosity ([1]; 0.001 Molar, 9 min, 1000 µM): 36%; Percent reduction in viscosity ([1]; 0.001 Molar, 12 min, 1000 µM): 36%; Percent reduction in viscosity ([1]; 0.001 Molar, 15 min, 1000 µM): 34%; Percent reduction in viscosity ([1]; 0.002 Molar, 1 min, 2000 µM): 26%; Percent reduction in viscosity ([1]; 0.002 Molar, 3 min, 2000 µM): 37%; Percent reduction in viscosity ([1]; 0.002 Molar, 6 min, 2000 µM): 42%; Percent reduction in viscosity ([1]; 0.002 Molar, 9 min, 2000 µM): 44%; Percent reduction in viscosity ([1]; 0.002 Molar, 12 min, 2000 µM): 44%; Percent reduction in viscosity ([1]; 0.002 Molar, 15 min, 2000 µM): 42%
CC(=O)SCC(=O)Nc1ccc(C(=O)O)cc1 [Compound 5, 4-[2-(ACETYLTHIO)ACETAMIDO]BENZOIC ACID] |  |  |  |  |  |  |  |  |  |  |  |  |  | 34% | 42% | 54% | 54% | 52% | 48% | significantly more active than N-acetyl-L-cysteine | 
CC(=O)N[C@@H](CS)C(=O)O [NAC, N-acetyl-L-cysteine, reference compound] |  |  |  |  |  |  |  |  |  |  |  |  |  | 25% and 29% and 33% | 32% and 33% and 34% | 40% and 36% | 42% and 40% and 34% | 42% and 43% and 34% | 40% and 34% |  | Percent reduction in viscosity ([1]; 0.06 Molar, 1 min, 60000 µM): 36%; Percent reduction in viscosity ([1]; 0.06 Molar, 3 min, 60000 µM): 45%; Percent reduction in viscosity ([1]; 0.06 Molar, 6 min, 60000 µM): 52%; Percent reduction in viscosity ([1]; 0.06 Molar, 9 min, 60000 µM): 50%; Percent reduction in viscosity ([1]; 0.06 Molar, 12 min, 60000 µM): 52%; Percent reduction in viscosity ([1]; 0.06 Molar, 15 min, 60000 µM): 60%
